Usually LD50 stands for the dose at which mortality reaches 50%. A low value points to a more toxic substance.

The results in this text go back to US4593090A, “Novel nitrosourea compounds, method for preparing same, and pharmaceutical composition containing same” (Gogo Kimura, priority 1981, dated 1986).

Where only a bound is given, the exact number is not on record here.

One data set has as its system Leukemia L1210. Nature of the data set: Activity against Leukemia L1210, intraperitoneal, increase in life span of mice. It counts as in vivo, female mice (BDF1 family). Particulars: for ED (maximum ILS) / ED30: Mus musculus, L1210, ip, ip once a day for 5 successive days; for ED (maximum ILS): daily dosage giving maximum increase of life span, read-out: O.D. (optimum dosage); for ED30: daily dosage increasing average survival days by 30%, read-out: ILS30; for Survivors after 60 days / Max. ILS % / Therapeutic ratio TR: ip; for Survivors after 60 days: 6-membered group; for Max. ILS %: 60-day observation, versus control; for Therapeutic ratio TR: O.D./ILS30. Summed up: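 Mice (female BDF1, 20–23 g) carrying 1×10^5 ip-implanted L1210 cells were given daily ip or oral doses for 5 days; ILS% came from mean survival over 60 days relative to controls.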

Data set [1] is described as follows: Acute toxicity (LD50, Behrens-Karber method). It counts as in vivo, ICR mice. As to conditions: mouse, in vivo, ip, mortality during 30 days. On the procedure:
Test compounds, dissolved or suspended in 0.5% aqueous CMC, were each intraperitoneally administered to ICR mice in a dose of 0.1 ml per 10 g body weight. LD50 (mg/kg) value of each test compound was calculated from the mortality of mice during 30 days by the Behrens-Karber method.

For the molecule `CC(C)(C)O[C@H]1O[C@H](CN(C(=O)N(CCCl)N=O)C2CCCCC2)[C@@H](O)[C@H](O)[C@H]1O` [Compound 173, 3-cyclohexyl-3-(tert-butyl α-D-glucopyranose-6-yl)-1-(2-chloroethyl)-1-nitrosourea], in the data set with Leukemia L1210, the ED (maximum ILS) was determined as 160 mg/kg, the ED30 came to 3.16 mg/kg, the “Survivors after 60 days” value is 5/6 and the “Max. ILS %” value is listed as greater than 630%. Further, the “Therapeutic ratio TR” value in the data set with Leukemia L1210 turned out to be 50.6. Also, the LD50 at 720 h in data set [1] amounted to 510 mg/kg.
On to `O=NN(CCCl)C(=O)N(CCC1CCCC1)C[C@H]1O[C@H](OC2CCCCC2)[C@H](O)[C@@H](O)[C@@H]1O` [Compound 45, 3-(2-cyclopentylethyl)-3-(cyclohexyl α-D-glucopyranose-6-yl)-1-(2-chloroethyl)-1-nitrosourea], for which, in the data set with Leukemia L1210, the ED (maximum ILS) was found to be 180 mg/kg, the ED30 was 4.22 mg/kg, the “Survivors after 60 days” value is recorded as 5/6 and the “Max. ILS %” value is greater than 625%. Besides, the “Therapeutic ratio TR” value in the data set with Leukemia L1210 was 42.7. Also, the LD50 at 720 h in data set [1] was 560 mg/kg.
For `CC(C)CO[C@H]1O[C@H](CN(Cc2cccs2)C(=O)N(CCCl)N=O)[C@H](O)[C@H](O)[C@H]1O` [Compound 112, 3-(thiophene-2-yl-methyl)-3-(isobutyl α-D-galactopyranose-6-yl)-1-(2-chloroethyl)-1-nitrosourea], in the data set on Leukemia L1210, the ED (maximum ILS) is 180 mg/kg, the ED30 is 4.17 mg/kg, the “Survivors after 60 days” value is 3/6 and the “Max. ILS %” value was greater than 350%. Further, the “Therapeutic ratio TR” value in the data set on Leukemia L1210 was determined as 43.2. The LD50 at 720 h in data set [1] came out at 480 mg/kg.
On to `CC=CCO[C@H]1O[C@H](CN(CC(C)C)C(=O)N(CCCl)N=O)[C@@H](O)[C@H](O)[C@H]1O` [Compound 29, 3-isobutyl-3-(2-butenyl α-D-glucopyranose-6-yl)-1-(2-chloroethyl)-1-nitrosourea], for which, in the data set on Leukemia L1210, the ED (maximum ILS) amounted to 140 mg/kg, the ED30 is 3.64 mg/kg, the “Survivors after 60 days” value is 5/6 and the “Max. ILS %” value is listed as greater than 620%. For the same molecule, the “Therapeutic ratio TR” value in the data set on Leukemia L1210 stood at 38.5. In data set [1], this molecule came in with a median lethal dose (LD50) at 720 h of 410 mg/kg.
On to `CC(C)CO[C@@H]1O[C@H](CN(CCC(C)(C)C)C(=O)N(CCCl)N=O)[C@@H](O)[C@H](O)[C@H]1O` [Compound 189, 3-(3,3-dimethyl-n-butyl)-2-(isobutyl β-D-glucopyranose-6-yl)-1-(2-chloroethyl)-1-nitrosourea], for which, in the data set on Leukemia L1210, the ED (maximum ILS) turned out to be 150 mg/kg, the ED30 turned out to be 3.1 mg/kg, the “Survivors after 60 days” value was 6/6 and the “Max. ILS %” value is greater than 700%. For the same molecule, the “Therapeutic ratio TR” value with Leukemia L1210 was determined as 48.4. Besides, in data set [1], the LD50 at 720 h was 480 mg/kg.
In the case of `O=NN(CCCl)C(=O)N(CCC1CCCC1)C1C(O)C(CO)OC(OC2CCCCC2)C1O` [Compound 88, 3-(2-cyclopentylethyl)-3-(cyclohexyl α-D-glucopyranose-3-yl)-1-(2-chloroethyl)-1-nitrosourea], in the data set with Leukemia L1210, the ED (maximum ILS) was determined as 200 mg/kg, the ED30 came out at 6.62 mg/kg, the “Survivors after 60 days” value was 3/6 and the “Max. ILS %” value was greater than 360%. The “Therapeutic ratio TR” value in the data set with Leukemia L1210 is 30.2. In data set [1], this molecule came in with an LD50 at 720 h of 710 mg/kg.
For the molecule `CCCCCCO[C@H]1O[C@H](CN(C(=O)N(CCCl)N=O)C(C)COC)[C@@H](O)[C@H](O)[C@H]1O` (stereo partly drawn) [Compound 27, 3-(1-methyl-2-methoxyethyl)-3-(n-hexyl α-D-glucopyranose-6-yl)-1-(2-chloroethyl)-1-nitrosourea], in the data set on Leukemia L1210, the ED (maximum ILS) is 170 mg/kg, the ED30 was 4.67 mg/kg, the “Survivors after 60 days” value is 5/6 and the “Max. ILS %” value was greater than 630%. Further, the “Therapeutic ratio TR” value with Leukemia L1210 is on record as 36.4. This molecule displayed an LD50 at 720 h in data set [1] of 505 mg/kg.
